Results reported in patent US20200392107A1, “CYCLIC AMINE DERIVATIVE AND MEDICAL USE THEREOF” (Toray Industries, Inc., priority 2018, published 2020).

Key:
[1] = system: imiquimod-induced mouse psoriasis model; test: Imiquimod-induced mouse psoriasis model; type: in vivo; conditions: 10 mg/kg orally once daily for 5 days (3 to 7 days after induction); BALB/c mice; vs vehicle, P<0.05
Description: Using increase in the ear thickness as an index of exacerbation of symptoms, the effect of the cyclic amine derivative (I) or a pharmacologically acceptable salt thereof in an imiquimod-induced mouse psoriasis model was evaluated. The imiquimod-induced mouse psoriasis model was prepared by a partially modified method by Schaper et al. (The Journal of Dermatological Science, 2013, Vol. 71, No. 1, p. 29-36).
BALB/c mice (male, 7 weeks old) (Charles River Laboratories Japan, Inc.) were used at 8 to 9 weeks old after preliminary breeding. To induce psoriasis-like symptoms, 5 mg each of BESELNA CREAM 5% was applied once daily to the outside of the right and left auricles of the mice for 8 days from the day of first administration of imiquimod (hereinafter referred to as induction day) to 7 days after induction (dose of imiquimod, 0.5 mg/body/day).
(§1) A test compound at a dose of 10 mg/kg was administered to the mice once daily for 5 days from 3 days after induction to 7 days after induction. As the test compound, the compound of Example 1, the compound of Example 4, and the compound of Example 9 were used. The compound of Example 1, the compound of Example 4, and the compound of Example 9 were respectively suspended in a 0.5 w/v % methylcellulose solution and orally administered. The group in which the compound of Example 1 was administered to mice was defined as the Example-1 compound administration group, the group in which the compound of Example 4 was administered was defined as the Example-4 compound administration group, and the group in which the compound of Example 9 was administered was defined as the Example-9 compound administration group. In the vehicle administration group, a vehicle of each test compound (0.5 w/v % methylcellulose solution) was similarly administered.
The right and left ear thickness before administration of imiquimod (before induction) on the induction day and the right and left ear thickness on the 8th day after induction were measured with a digital micrometer (Mitutoyo Corporation). […]

[2] = system: oxazolone-induced mouse atopic dermatitis model; test: Oxazolone-induced mouse atopic dermatitis model; type: in vivo; conditions: 10 mg/kg orally once daily for 15 days from sensitization day; BALB/c mice; vs vehicle, P<0.05
Description: Using increase in the ear thickness as an index of exacerbation of symptoms, the effect of the cyclic amine derivative (I) or a pharmacologically acceptable salt thereof in an oxazolone-induced mouse atopic dermatitis model was evaluated. The oxazolone-induced mouse atopic dermatitis model was prepared by a partially modified method by Nakajima et al. (Journal of Investigative Dermatology, 2014, Vol. 134, p. 2122-2130).
BALB/c mice (female, 7 weeks old) (Charles River Laboratories Japan, Inc.) were used at 8 weeks old after preliminary breeding. To the back of the mice, 25 μL of a 3 w/v % oxazolone solution dissolved in ethanol was applied to sensitize the mice. Every other day from 5 days to 13 days after the sensitization, 10 μL each of a 0.6 w/v % oxazolone solution dissolved in ethanol was applied to both sides of the right auricle of the sensitized mice to induce inflammation.
as §1, with “for 15” for “for 5”, “from the sensitization day to 14” for “from 3”, “after sensitization.” for “after induction to 7 days after induction.”, “were” for “were respectively”
The right ear thickness before application of the oxazolone solution (before sensitization) on the sensitization day and the right ear thickness on the next day of final induction were measured with a digital micrometer (Mitutoyo Corporation). […]

CC(=O)N1CCCC[C@@H]1C(=O)Nc1cc(Cl)c2c(c1)CCN2C[C@H]1CC[C@H](C(F)(F)F)CC1 [Example 9, (R)-1-acetyl-N-(7-chloro-1-((trans-4-(trifluoromethyl)cyclo-hexyl)methyl)indolin-5-yl)piperidine-2-carboxamide]
increase in the ear thickness (change in the ear thickness, 8th day after induction) [1]: statistically significantly suppressed
increase in the ear thickness (change in the ear thickness, next day of final induction) [2]: statistically significantly suppressed

CC(=O)N1CCCC[C@@H]1C(=O)Nc1cc(Cl)c2c(c1)CCCN2Cc1ccc(C(F)(F)F)cc1 [Example 1, (R)-1-acetyl-N-(8-chloro-1-(4-(trifluoromethyl)benzyl)-1,2,3,4-tetrahydroquinolin-6-yl)piperidine-2-carboxamide]
increase in the ear thickness (change in the ear thickness, 8th day after induction) [1]: statistically significantly suppressed
increase in the ear thickness (change in the ear thickness, next day of final induction) [2]: statistically significantly suppressed

CC(=O)N1CCCC[C@@H]1C(=O)Nc1cc(Cl)c2c(c1)CCN2Cc1ccc(C(F)(F)F)cc1 [Example 4, (R)-1-acetyl-N-(7-chloro-1-(4-(trifluoromethyl)benzyl)indolin-5-yl)piperidine-2-carboxamide]
increase in the ear thickness (change in the ear thickness, 8th day after induction) [1]: statistically significantly suppressed
increase in the ear thickness (change in the ear thickness, next day of final induction) [2]: statistically significantly suppressed
